#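 1) Cells in 96-well plates. 2) Compound, 48 h, 5 concentrations. 3) Linear interpolation between surrounding doses. 4) Unreached endpoint = highest concentration. The concentration for full growth arrest is given as TGI.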
# Tests used:
# Assay in all cases: inhibition of tumour cell growth, NCI panel, 48 h
# SK-OV-3 ovarian = system: SK-OV-3 ovarian
# T-47D breast = system: T-47D breast
# BT-549 breast = system: BT-549 breast
# KM20L2 colon = system: KM20L2 colon
# DU-145 prostate = system: DU-145 prostate
# HT29 colon = system: HT29 colon
# HCC-2998 colon = system: HCC-2998 colon
# UO-31 renal = system: UO-31 renal
# COLO 205 colon = system: COLO 205 colon
# OVCAR-4 ovarian = system: OVCAR-4 ovarian
# OVCAR-5 ovarian = system: OVCAR-5 ovarian
# EKVX NSCLC = system: EKVX NSCLC
# TK-10 renal = system: TK-10 renal
# 786-0 renal = system: 786-0 renal
# SK-MEL-2 melanoma = system: SK-MEL-2 melanoma
# UACC-257 melanoma = system: UACC-257 melanoma
# MCF7 breast = system: MCF7 breast
# HCT-15 colon = system: HCT-15 colon
# SF-268 CNS = system: SF-268 CNS
# NCI/ADR-RES ovarian = system: NCI/ADR-RES ovarian
# NCI-H522 lung = system: NCI-H522 lung
# SR leukemia = system: SR leukemia
# LOX IMVI melanoma = system: LOX IMVI melanoma
# NCI-H226 lung = system: NCI-H226 lung
# MOLT-4 leukemia = system: MOLT-4 leukemia
# KM12 colon = system: KM12 colon
# HOP-92 NSCLC = system: HOP-92 NSCLC
# NCI-H23 lung = system: NCI-H23 lung
# SNB-19 CNS = system: SNB-19 CNS
# UACC-62 melanoma = system: UACC-62 melanoma
# HCT-116 colon = system: HCT-116 colon
# HL-60(TB) leukemia = system: HL-60(TB) leukemia
# SN12C renal = system: SN12C renal
# MALME-3M melanoma = system: MALME-3M melanoma
# SW-620 colon = system: SW-620 colon
# U251 CNS = system: U251 CNS
# A549 NSCLC = system: A549 NSCLC
# MDA-MB-231 breast = system: MDA-MB-231 breast
# SF-295 CNS = system: SF-295 CNS
# MDA-N = system: MDA-N
# HOP-62 NSCLC = system: HOP-62 NSCLC
# MDA-MB-435 = system: MDA-MB-435
# CAKI-1 renal = system: CAKI-1 renal
# SF-539 CNS = system: SF-539 CNS
# M14 melanoma = system: M14 melanoma
# K-562 leukemia = system: K-562 leukemia
# OVCAR-8 ovarian = system: OVCAR-8 ovarian
# A498 renal = system: A498 renal
# RPMI-8226 leukemia = system: RPMI-8226 leukemia
# SNB-75 CNS = system: SNB-75 CNS
# ACHN renal = system: ACHN renal
# HS 578T breast = system: HS 578T breast
# SK-MEL-28 melanoma = system: SK-MEL-28 melanoma
# PC-3 prostate = system: PC-3 prostate
# RXF 393 renal = system: RXF 393 renal
# SK-MEL-5 melanoma = system: SK-MEL-5 melanoma
# NCI-H460 lung = system: NCI-H460 lung
# IGROV1 ovarian = system: IGROV1 ovarian
# OVCAR-3 ovarian = system: OVCAR-3 ovarian
# CCRF-CEM leukemia = system: CCRF-CEM leukemia
smiles,measurement,setting,value
COc1ccc(/C=C/c2cc(OC)c(OC)c(OC)c2)cc1O,TGI,SK-OV-3 ovarian,39.9 µM
same,TGI,T-47D breast,45.7 µM
same,TGI,BT-549 breast,40.7 µM
same,TGI,KM20L2 colon,25.1 µM
same,TGI,DU-145 prostate,38.9 µM
same,TGI,HT29 colon,24 µM
same,TGI,HCC-2998 colon,36.9 µM
same,TGI,UO-31 renal,21 µM
same,TGI,COLO 205 colon,54.3 µM
same,TGI,OVCAR-4 ovarian,71.5 µM
same,TGI,OVCAR-5 ovarian,79.5 µM
same,TGI,EKVX NSCLC,59.3 µM
same,TGI,TK-10 renal,75.1 µM
same,TGI,786-0 renal,15.3 µM
O=C(O)CSSCC(=O)O,TGI,SK-MEL-2 melanoma,> 100 µM
same,TGI,UACC-257 melanoma,> 100 µM
same,TGI,MCF7 breast,> 100 µM
same,TGI,HCT-15 colon,> 100 µM
same,TGI,SF-268 CNS,> 100 µM
same,TGI,NCI/ADR-RES ovarian,> 100 µM
same,TGI,NCI-H522 lung,> 100 µM
same,TGI,SK-OV-3 ovarian,> 100 µM
same,TGI,SR leukemia,> 100 µM
same,TGI,LOX IMVI melanoma,> 100 µM
same,TGI,T-47D breast,> 100 µM
same,TGI,NCI-H226 lung,> 100 µM
same,TGI,MOLT-4 leukemia,> 100 µM
same,TGI,KM12 colon,> 100 µM
same,TGI,BT-549 breast,> 100 µM
same,TGI,HOP-92 NSCLC,> 100 µM
same,TGI,NCI-H23 lung,> 100 µM
same,TGI,SNB-19 CNS,> 100 µM
same,TGI,UACC-62 melanoma,> 100 µM
same,TGI,HCT-116 colon,> 100 µM
same,TGI,HL-60(TB) leukemia,> 100 µM
same,TGI,SN12C renal,> 100 µM
same,TGI,MALME-3M melanoma,> 100 µM
same,TGI,SW-620 colon,> 100 µM
same,TGI,U251 CNS,> 100 µM
same,TGI,A549 NSCLC,> 100 µM
same,TGI,MDA-MB-231 breast,> 100 µM
same,TGI,SF-295 CNS,> 100 µM
same,TGI,MDA-N,> 100 µM
same,TGI,DU-145 prostate,> 100 µM
same,TGI,HOP-62 NSCLC,> 100 µM
same,TGI,HT29 colon,> 100 µM
same,TGI,MDA-MB-435,> 100 µM
same,TGI,CAKI-1 renal,> 100 µM
same,TGI,SF-539 CNS,> 100 µM
same,TGI,M14 melanoma,> 100 µM
same,TGI,K-562 leukemia,> 100 µM
same,TGI,HCC-2998 colon,> 100 µM
same,TGI,UO-31 renal,> 100 µM
same,TGI,OVCAR-8 ovarian,> 100 µM
same,TGI,A498 renal,> 100 µM
same,TGI,RPMI-8226 leukemia,> 100 µM
same,TGI,COLO 205 colon,> 100 µM
same,TGI,SNB-75 CNS,> 100 µM
same,TGI,OVCAR-4 ovarian,> 100 µM
same,TGI,ACHN renal,> 100 µM
same,TGI,HS 578T breast,> 100 µM
same,TGI,OVCAR-5 ovarian,> 100 µM
same,TGI,SK-MEL-28 melanoma,> 100 µM
same,TGI,PC-3 prostate,> 100 µM
same,TGI,RXF 393 renal,> 100 µM
same,TGI,EKVX NSCLC,> 100 µM
same,TGI,SK-MEL-5 melanoma,> 100 µM
same,TGI,TK-10 renal,> 100 µM
same,TGI,NCI-H460 lung,> 100 µM
same,TGI,IGROV1 ovarian,> 100 µM
same,TGI,OVCAR-3 ovarian,> 100 µM
same,TGI,CCRF-CEM leukemia,> 100 µM
same,TGI,786-0 renal,> 100 µM
